Experimental data taken from patent US9247740B2, “Isoxazoline derivatives as insecticidal compounds” (Syngenta Participations AG, priority 2011, dated 2016).

What was measured:
Type in all cases: in vivo
[1] = test system: Tetranychus urticae (Two-Spotted Spider Mite); assay: Tetranychus urticae leaf disc spray test; conditions: foliar, 192 h, 200 ppm spray on bean leaf discs, mixed ages, egg, larval and adult mortality 8 days later
Excerpt: (§1) This Example illustrates the insecticidal and acaricidal properties of compounds of formula (I).

[2] = test system: Thrips tabaci (Onion Thrips); assay: Thrips tabaci leaf disc spray test; conditions: foliar, 168 h, 200 ppm spray on sunflower leaf discs, mixed ages, mortality after 7 days
Excerpt: as §1

[3] = test system: Plutella xylostella (Diamond Back Moth); assay: Plutella xylostella larval test on artificial diet; conditions: 144 h, 200 ppm (concentration in well 18 ppm), L2 larvae, larval mortality and growth regulation after 6 days
Excerpt: as §1

[4] = test system: Spodoptera littoralis (Egyptian Cotton Leafworm); assay: Spodoptera littoralis leaf disc spray test; conditions: foliar, 72 h, 200 ppm spray on cotton leaf discs, mortality, feeding behavior, growth regulation 3 days after treatment
Experimental: This Example illustrates the insecticidal and acaricidal properties of compounds of formula (I). Tests were performed as follows:

[5] = test system: Diabrotica balteata (Corn Root Worm); assay: Diabrotica balteata larval test on artificial diet; conditions: 120 h, 200 ppm (concentration in well 18 ppm), L2 larvae, larval mortality and growth regulation after 5 days
Excerpt: as §1

[6] = test system: Heliothis virescens (Tobacco Budworm); assay: Heliothis virescens egg test on artificial diet; conditions: 96 h, 200 ppm (concentration in well 18 ppm), eggs 0-24 h old on artificial diet, egg mortality, larval mortality, growth regulation after 4 days
Excerpt: as §1

Measured: pest or weed control at 200 ppm

Cc1cc(C2=NOC(c3cc(Cl)cc(Cl)c3)(C(F)(F)F)C2)ccc1C(=O)NCC1CS(=O)(=O)C1 (stereo not drawn) [Compound A132, 4-[5-(3,5-dichlorophenyl)-5-(trifluoromethyl)-4H-isoxazol-3-yl]-2-methyl-N-(1.1-dioxo-thietan-3-ylmethyl)benzamide]
≥ 80%: all assays above

O=C(N[C@H]1C[S@@+]([O-])C1)c1ccc(C2=NO[C@@](c3cc(Cl)cc(Cl)c3)(C(F)(F)F)C2)cc1Cl [Compound C15, 2-chloro-4-[(5S)-5-(3,5-dichlorophenyl)-5-(trifluoromethyl)-4H-isoxazol-3-yl]-N-(1-oxidothietan-1-ium-3-yl)benzamide]
≥ 80%: all assays above

Cc1cc(C2=NOC(c3cc(C(F)(F)F)n(CC(F)F)c3)(C(F)(F)F)C2)ccc1C(=O)NC1CSC1 (stereo not drawn) [Compound C007, 4-[5-[1-(2,2-difluoroethyl)-5-(trifluoromethyl)pyrrol-3-yl]-5-(trifluoromethyl)-4H-isoxazol-3-yl]-2-methyl-N-(thietan-3-yl)benzamide]
≥ 80%: all assays above
